Legend:
KDR tyrosine kinase = target: T1, KDR tyrosine kinase (Homo sapiens, UniProt P35968); assay: In vitro enzyme assay (ELISA), Test (a), KDR; type: biochemical; settings: ATP 8 μM, read-out: IC50 versus KDR tyrosine kinase
T1 construct: a DNA fragment encoding most of the cytoplasmic domain, commencing with methionine 806 and including the termination codon; made in house; host or cells: Sf9 insect cells (recombinant baculovirus)
Experimental: (§1) The ability of test compounds to inhibit the phosphorylation of a tyrosine containing polypeptide substrate by the tyrosine kinase enzymes PDGFRα, PDGFRβ and KDR was assessed using conventional ELISA assays. DNA encoding the PDGFRα, PDGFRβ or KDR receptor cytoplasmic domains may be obtained by total gene synthesis (International Biotechnology Lab., 1987, 5(3), 19-25) or by cloning. The DNA fragments may be expressed in a suitable expression system to obtain polypeptide with tyrosine kinase activity. For example, PDGFRα, PDGFRβ and KDR receptor cytoplasmic domains, obtained by expression of recombinant protein in insect cells, can be shown to display intrinsic tyrosine kinase activity. In the case of the VEGF receptor KDR (Genbank Accession No. L04947), a DNA fragment encoding most of the cytoplasmic domain, commencing with methionine 806 and including the termination codon may be cloned into a baculovirus transplacement vector [for example pAcYM1 (see The Baculovirus Expression System: A Laboratory Guide, L. A. King and R. D. Possee, Chapman and Hall, 1992) or pAc360 or pBlueBacHis (available from Invitrogen Corporation)]. This recombinant construct may be co-transfected into insect cells [for example Spodoptera frugiperda 21(Sf21) or Spodoptera frugiperda 9(Sf9)] with viral DNA (for example Pharmingen BaculoGold) to prepare recombinant baculovirus. Details of the methods for the assembly of recombinant DNA molecules and the preparation and use of recombinant baculovirus can be found in standard texts, for example Sambrook et al., 1989, Molecular cloning—A Laboratory Manual, 2nd edition, Cold Spring Harbour Laboratory Press and O'Reilly et al., 1992, Baculovirus Expression Vectors—A Laboratory Manual, W. H. Freeman and Co, New York).
For expression, Sf9 cells were infected with plaque-pure KDR recombinant virus and harvested 48 hours later. […]

phospho-Tyr751 PDGFRβ = target: T2, phospho-Tyr751 PDGFRβ (Homo sapiens, UniProt P09619); assay: In vitro phospho-Tyr751 PDGFRβ ELISA assay in MG63 osteosarcoma cells, Test (b); type: cell-based; settings: MG63 cells stimulated with PDGFBB, read-out: IC50 versus phospho-Tyr751 PDGFRβ
T2 construct: phosphorylation of PDGFR expressed on MG63 osteosarcoma cells; endogenous in cells; host or cells: MG63 osteosarcoma cells
Experimental: This assay uses a conventional ELISA method to determine the ability of test compounds to inhibit phosphorylation of tyrosine in PDGFRβ.
An MG63 osteosarcoma cell line [American Type Culture Collection (ATCC) CCL 1427] was routinely maintained at 37° C. with 7.5% CO2 in Dulbecco's modified Eagle's growth medium (DMEM; Sigma-Aldrich; Catalogue No. D6546) containing 10% foetal calf serum (FCS; Sigma-Aldrich; Catalogue No. F7524) and 2 mM L-glutamine (Invitrogen Ltd., Paisley, UK; Catalogue No. 25030-024).
For the assay, the cells were detached from the culture flask using a trypsin/ethylenediaminetetraacetic acid (EDTA) mixture (Invitrogen Ltd.; Catalogue No. 15400-054) and resuspended in test media comprising DMEM without phenol red (Sigma-1-Aldrich; Catalogue No. D5921) containing 1% charcoal-stripped-foetal calf serum (FCS) (Sigma-Aldrich; Catalogue No. F7524, stripped by incubation with dextran-coated activated charcoal at 55° C. for 30 minutes with continuous stirring followed by removal of the charcoal by centrifugation and filter sterilisation) and 2 mM L-glutamine (Invitrogen Ltd., Catalogue No. 25030-024) to give 6×10^4 cells per ml. […]

PDGFRα tyrosine kinase = target: T3, PDGFRα tyrosine kinase (Homo sapiens, UniProt P16234); assay: In vitro enzyme assay (ELISA), Test (a), PDGFRα; type: biochemical; settings: ATP 14 μM, read-out: IC50 versus PDGFRα tyrosine kinase
T3 construct: PDGFRα, PDGFRβ and KDR receptor cytoplasmic domains, obtained by expression of recombinant protein in insect cells; purchased Upstate Biotechnology Inc. 14-467; host or cells: Sf9 insect cells
Experimental: as §1, with “Details of the methods for the assembly of recombinant DNA molecules and the preparation and use of recombinant baculovirus can be found in standard texts, for example Sambrook et al., 1989, Molecular cloning—A Laboratory Manual, 2nd edition, Cold Spring Harbour Laboratory Press and O'Reilly et al., 1992, Baculovirus Expression Vectors—A Laboratory Manual, W. H. Freeman and Co, New York).” left out

PDGFRβ tyrosine kinase = target: T4, PDGFRβ tyrosine kinase (Homo sapiens, UniProt P09619); assay: In vitro enzyme assay (ELISA), Test (a), PDGFRβ; type: biochemical; settings: ATP 2.8 μM, read-out: IC50 versus PDGFRβ tyrosine kinase
T4 construct: PDGFRα, PDGFRβ and KDR receptor cytoplasmic domains, obtained by expression of recombinant protein in insect cells; purchased Upstate Biotechnology Inc. 14-463; host or cells: Sf9 insect cells
Experimental: as §1, with “Details of the methods for the assembly of recombinant DNA molecules and the preparation and use of recombinant baculovirus can be found in standard texts, for example Sambrook et al., 1989, Molecular cloning—A Laboratory Manual, 2nd edition, Cold Spring Harbour Laboratory Press and O'Reilly et al., 1992, Baculovirus Expression Vectors—A Laboratory Manual, W. H. Freeman and Co, New York).” left out

PDGF receptor kinase = settings: Nature Reviews 2002; Cancer Research 1996; cited from earlier work
[1] = tested on: human glioblastoma lines U343 and U87; settings: U343 and U87 injected into the brains of nude mice; Cancer Research 2000; cited from earlier work
[2] = tested on: dermatofibrosarcoma protruberans cell cultures; settings: Cancer Research 2001; cited from earlier work

T1 sequence (P35968 786-1356 limits assumed): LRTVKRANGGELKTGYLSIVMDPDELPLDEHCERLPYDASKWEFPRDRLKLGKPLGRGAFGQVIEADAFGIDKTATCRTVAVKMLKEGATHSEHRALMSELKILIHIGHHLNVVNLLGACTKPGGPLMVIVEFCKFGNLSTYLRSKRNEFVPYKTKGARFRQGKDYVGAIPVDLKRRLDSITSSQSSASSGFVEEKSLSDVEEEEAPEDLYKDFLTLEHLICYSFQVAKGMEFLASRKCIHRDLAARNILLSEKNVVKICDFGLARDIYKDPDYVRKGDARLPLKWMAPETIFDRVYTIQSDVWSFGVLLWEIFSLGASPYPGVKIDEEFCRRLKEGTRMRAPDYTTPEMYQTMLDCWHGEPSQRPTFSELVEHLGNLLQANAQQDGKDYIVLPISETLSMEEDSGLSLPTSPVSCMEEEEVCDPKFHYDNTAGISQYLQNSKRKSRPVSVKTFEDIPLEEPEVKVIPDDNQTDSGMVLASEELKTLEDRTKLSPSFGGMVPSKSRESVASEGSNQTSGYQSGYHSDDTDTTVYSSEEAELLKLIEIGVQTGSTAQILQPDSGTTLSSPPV
T2 sequence (P09619 33-1106): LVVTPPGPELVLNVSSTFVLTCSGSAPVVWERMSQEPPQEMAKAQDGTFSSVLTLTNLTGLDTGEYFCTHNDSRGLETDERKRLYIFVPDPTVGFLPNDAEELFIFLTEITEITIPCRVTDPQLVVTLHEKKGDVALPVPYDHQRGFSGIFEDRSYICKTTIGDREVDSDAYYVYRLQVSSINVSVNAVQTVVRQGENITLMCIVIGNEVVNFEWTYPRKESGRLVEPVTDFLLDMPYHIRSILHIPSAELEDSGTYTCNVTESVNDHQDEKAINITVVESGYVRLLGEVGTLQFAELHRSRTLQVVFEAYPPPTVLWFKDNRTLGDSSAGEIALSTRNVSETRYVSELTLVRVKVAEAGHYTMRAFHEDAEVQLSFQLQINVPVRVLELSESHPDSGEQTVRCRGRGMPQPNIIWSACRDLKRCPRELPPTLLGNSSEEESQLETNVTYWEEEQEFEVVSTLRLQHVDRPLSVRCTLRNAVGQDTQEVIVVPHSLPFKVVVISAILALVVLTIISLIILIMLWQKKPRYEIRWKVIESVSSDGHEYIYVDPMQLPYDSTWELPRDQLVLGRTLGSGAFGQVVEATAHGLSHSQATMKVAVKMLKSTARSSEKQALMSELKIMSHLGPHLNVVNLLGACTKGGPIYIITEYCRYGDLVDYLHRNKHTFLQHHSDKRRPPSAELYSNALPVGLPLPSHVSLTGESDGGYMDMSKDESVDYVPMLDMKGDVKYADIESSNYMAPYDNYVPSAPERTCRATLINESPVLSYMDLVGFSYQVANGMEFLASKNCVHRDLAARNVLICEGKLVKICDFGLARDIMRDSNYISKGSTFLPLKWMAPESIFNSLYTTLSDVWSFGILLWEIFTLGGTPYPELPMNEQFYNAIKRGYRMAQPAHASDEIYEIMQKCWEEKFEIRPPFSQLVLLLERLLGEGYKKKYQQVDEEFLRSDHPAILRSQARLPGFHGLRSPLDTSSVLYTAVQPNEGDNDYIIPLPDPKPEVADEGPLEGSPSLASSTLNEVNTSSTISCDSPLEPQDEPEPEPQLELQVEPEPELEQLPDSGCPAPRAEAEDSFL
T4 sequence (P09619 554-1106 limits assumed): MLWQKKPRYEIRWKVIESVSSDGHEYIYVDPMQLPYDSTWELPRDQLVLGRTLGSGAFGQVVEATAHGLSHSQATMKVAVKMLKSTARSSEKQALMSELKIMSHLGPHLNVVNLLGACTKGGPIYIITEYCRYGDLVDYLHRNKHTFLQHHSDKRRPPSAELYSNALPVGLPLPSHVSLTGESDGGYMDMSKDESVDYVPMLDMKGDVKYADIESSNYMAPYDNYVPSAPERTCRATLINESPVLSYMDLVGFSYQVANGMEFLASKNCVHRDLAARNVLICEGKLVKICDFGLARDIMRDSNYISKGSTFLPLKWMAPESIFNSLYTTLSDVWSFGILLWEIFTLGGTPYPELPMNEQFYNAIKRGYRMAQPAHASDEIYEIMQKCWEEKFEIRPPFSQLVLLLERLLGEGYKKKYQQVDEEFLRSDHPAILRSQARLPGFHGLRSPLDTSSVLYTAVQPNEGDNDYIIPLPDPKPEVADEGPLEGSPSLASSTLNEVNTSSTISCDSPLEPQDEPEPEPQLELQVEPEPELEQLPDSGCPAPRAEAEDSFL
T3 sequence (P16234 550-1089 limits assumed): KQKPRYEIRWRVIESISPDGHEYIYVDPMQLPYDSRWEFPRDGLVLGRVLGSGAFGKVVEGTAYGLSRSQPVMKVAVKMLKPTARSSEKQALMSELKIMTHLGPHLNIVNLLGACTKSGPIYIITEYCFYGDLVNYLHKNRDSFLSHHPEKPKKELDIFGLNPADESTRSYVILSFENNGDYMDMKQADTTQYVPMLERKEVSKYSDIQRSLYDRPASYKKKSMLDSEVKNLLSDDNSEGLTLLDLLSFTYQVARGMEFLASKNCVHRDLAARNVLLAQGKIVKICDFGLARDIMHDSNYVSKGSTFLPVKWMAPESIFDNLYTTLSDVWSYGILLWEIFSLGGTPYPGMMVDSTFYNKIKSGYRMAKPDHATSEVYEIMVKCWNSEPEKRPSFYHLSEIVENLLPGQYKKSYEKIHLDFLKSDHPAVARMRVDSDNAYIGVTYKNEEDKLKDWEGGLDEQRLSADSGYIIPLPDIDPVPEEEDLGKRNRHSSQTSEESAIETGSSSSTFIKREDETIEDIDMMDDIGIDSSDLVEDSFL

SMILES	IC50 (KDR tyrosine kinase) [nM]	IC50 (phospho-Tyr751 PDGFRβ) [nM]	IC50 (PDGFRα tyrosine kinase) [nM]	IC50 (PDGFRβ tyrosine kinase) [nM]	inhibition of PDGF receptor kinase activity (PDGF receptor kinase)	growth of glioblastoma tumours [1]	in vivo growth of dermatofibrosarcoma protruberans cell cultures [2]
COc1cc2ncnc(Oc3cnn(CC(=O)Nc4ccc5c(c4)NCC5)c3)c2cc1OC [Example 40, N-(6-indolinyl)-2-[4-(6,7-dimethoxyquinazolin-4-yloxy)pyrazol-1-yl]acetamide]	~2	~1					
COc1cc2ncnc(Oc3cnn(CC(=O)Nc4ccc5c(c4)OCO5)c3)c2cc1OC [Example 1, N-(3,4-methylenedioxyphenyl)-2-[4-(6,7-dimethoxyquinazolin-4-yloxy)pyrazol-1-yl]acetamide]	~30		~7	~0.5			
Cc1ccc(NC(=O)c2ccc(CN3CCN(C)CC3)cc2)cc1Nc1nccc(-c2cccnc2)n1 [imatinib]					inhibit PDGF receptor kinase activity	inhibits the growth	inhibits the in vivo growth

— patent US20090036474A1, “Quinazoline derivatives for use against cancer” (priority 2004, published 2009)
